Read-outs that look alike come from different tables or passages of the source.
Columns and labels:
[1] = target: bovine serum albumin (BSA) (Bos taurus, UniProt P02769); settings: equal concentrations (1000 µg/mL); mean ± SE
[2] = ABTS radical scavenging assay; settings: equal concentrations (1000 µg/mL); mean ± SE
Experimental: (§1) All in vitro biological activities were assessed in the tested compounds at equal concentrations (1000 µg/mL). All assays were carried out in triplicate.
In vitro biological activities
(§2) The total antioxidant capacity (TAC) was determined by analyzing the green phosphate/Mo5+ complex at a wavelength (λ) of 695 nm, following the procedure described by Prieto
(§3) et al. Samples (at each concentration) were mixed with a reagent solution containing 0.3 N sulfuric
(§4) acid, 28 mM sodium phosphate, and 4 mM ammonium molybdate. Methanol (80%) was used in place
(§5) of the sample for the blank. The tubes were sealed and incubated in a boiling water bath for 90
(§6) minutes. After cooling to room temperature, the absorbance was measured at 695 nm against the
(§7) blank. Ascorbic acid was used at the same concentrations as a standard. The antioxidant capacity was
(§8) expressed as mg gallic acid equivalent per gram weight.
(§9) The iron reducing power was determined as µg/mL using the method proposed by Oyaizu
(§10) In brief, 1ml of the tested sample (at each concentration) was combined with 1mL of 200mM
(§11) sodium phosphate buffer (pH 6.6) and 1mL of 1% potassium ferricyanide. The mixture was then
(§12) incubated at 50°C for 20 minutes, followed by the addition of 1mL of trichloroacetic acid (10%). After
(§13) centrifugation at 2000rpm for 10 minutes, the upper layer solution (2.5 mL) was mixed with 2.5 mL of double deionized water and 1mL of fresh ferric chloride (0.1%). The absorbance was measured at
(§14) 700nm against a blank prepared without the sample. Ascorbic acid was used at the same
(§15) concentrations as a standard. A high absorbance at 700nm indicates a higher reducing power in the
(§16) The 1,1-Diphenyl-2-picryl-hydrazyl (DPPH) radical scavenging activities were evaluated using the method described by Rahman et al. An antioxidant substance capable of donating a
(§17) hydrogen atom to a solution containing DPPH- can reduce the stable free radical, causing the solution
(§18) to change color from violet to pale yellow. The remaining DPPH- radical was quantified by
(§19) nm using a spectroscopic method. Two milliliters of a DPPH solution (100 µM) in ethanol were mixed
(§20) with 2 mL of the sample (at each concentration). The reaction mixture for each concentration was
(§21) thoroughly vortexed and then incubated in the dark at room temperature for 30 minutes. The
(§22) absorbance was then measured spectrophotometrically at 518 nm against a blank (ethanol). For the
(§23) control, 2 mL of ethanol was added instead of the sample and run simultaneously with the test.
(§24) Ascorbic acid was used at the same concentrations as a positive control. Percent inhibition of the
(§25) DPPH free radical was calculated. The median inhibitory concentration (IC 50) for each tested
(§26) The procedure for the 2,2'-azinobis-(3-ethylbenzothiazoline-6-sulfonic acid) (ABTS) assay
(§27) potassium persulfate solution (2.4 mM). The working solution was prepared by mixing the two stock
(§28) solutions in equal quantities and allowing them to react at room temperature in a dark place for 14
(§29) hours. The solution was then diluted by mixing 1 mL of ABTS solution with 60 mL of methanol to
(§30) was prepared for each assay. The tested samples (at each concentration) were allowed to react with 1
(§31) mL of the ABTS solution, and the absorbance was taken at 734 nm after 7 minutes using a
(§32) spectrophotometer. The ABTS scavenging capacities of the samples were compared with that of
(§33) ascorbic acid (at the same concentrations).

Bcl-2 [3] = assay: Bcl-2 ELISA in treated Caco-2 cells; assay type: cell-based, human; settings: DMSO control 7.99 ± 0.08
α-glucosidase = assay: α-Glucosidase inhibition (anti-diabetic); assay type: biochemical; settings: equal concentrations (1000 µg/mL); mean ± SE
[4] = Iron-reducing power (IRP); settings: equal concentrations (1000 µg/mL); mean ± SE, three replicates
Experimental: as §1
In vitro biological activities
as §2, §3, §4, §5, §6, §7, §8, §9, §10, §11, §12, §13, §14, §15, §16, §17, §18, §19, §20, §21, §22, §23, §24, §25, §26, §27, §28, §29, §30, §31, §32, §33

α-amylase = assay: α-Amylase inhibition (anti-diabetic); assay type: biochemical; settings: equal concentrations (1000 µg/mL); mean ± SE
[5] = Cytotoxic activity, MTT assay, normal lung (WI-38); assay type: cell-based; settings: human, WI-38 normal lung cells; for IC50 at 48 h: MTT, mean ± SE, read-out: Cytotoxic activity IC50, Normal Lung (WI-38)
Bcl-2 [6] = assay: Bcl-2 ELISA in treated A549 cells; assay type: cell-based, human; settings: DMSO control 9.83 ± 0.05
[7] = Total antioxidant capacity (TAC), phosphomolybdenum method; settings: equal concentrations (1000 µg/mL); mean ± SE, three replicates
Experimental: as §1
In vitro biological activities
as §2, §3, §4, §5, §6, §7, §8, §9, §10, §11, §12, §13, §14, §15, §16, §17, §18, §19, §20, §21, §22, §23, §24, §25, §26, §27, §28, §29, §30, §31, §32, §33

caspase-3 [8] = assay: Caspase-3 ELISA in treated A549 cells; assay type: cell-based, human; settings: DMSO control 85.92 ± 0.12
[9] = test system: human lung cancer (A549) cell line; assay: Cytotoxic activity, MTT assay, lung (A549); settings: for Viability %, A549, 1st concentration: Conc.: 5a 13.45, 5d 12.64, 5e 12.29, 5f 11.81, 7a 12.72, 7f 11.24, DOX 11.50; for Viability %, A549, 2nd concentration: Conc.: 5a 26.91, 5d 25.27, 5e 24.58, 5f 23.63, 7a 25.43, 7f 22.48, DOX 23.00; for Viability %, A549, 3rd concentration: Conc.: 5a 53.81, 5d 50.55, 5e 49.15, 5f 47.26, 7a 50.86, 7f 44.96, DOX 46.00; for Viability %, A549, 4th concentration: Conc.: 5a 107.63, 5d 101.09, 5e 98.31, 5f 94.51, 7a 101.72, 7f 89.93, DOX 91.99; for Viability %, A549, 5th concentration: Conc.: 5a 215.26, 5d 202.19, 5e 196.61, 5f 189.03, 7a 203.44, 7f 179.85, DOX 183.99; for IC50: Homo sapiens, A549, 48 h, read-out: Cytotoxic activity IC50, Lung (A549)
Experimental: It will be assayed against human lung cancer (A549) and colon (Caco-2) cell line in
comparison with normal lung (WI-38) cell line using 3-(4,5-dimethythiazol-2-yl)-2,5-diphenyl
tetrazolium bromide (MTT) assay by determining the optical density (OD) at 570 nm according to the
The cells were dispensed in a 96-well sterile microplate (3
µL of each compound or doxorubicin (positive control, in DMSO) for 48 h in a serum free medium
prior to the MTT assay. Subsequently, the media were carefully removed, and 40 µL of MTT (2.5
mg/mL) was added to each well and then incubated for an additional 4 h. Purple formazan dye
crystals were solubilized by the addition of 200 µL of DMSO. The absorbance was measured at 570 nm using a SpectraMax Paradigm Multi-Mode microplate reader. The relative cell viability was
experiments were conducted in triplicate. Percent of the cell-growth inhibition (%) and the IC 50 was
calculated using IC 50 calculation software. The concentrations used for calculating the IC 50 depend on

[10] = target: acetylcholinesterase (AChE) (Homo sapiens, UniProt P22303); assay: biochemical; settings: same concentration (1000 µg/mL); mean ± SE
acetylcholinesterase (AChE), sequence (P22303 32-614, species assumed): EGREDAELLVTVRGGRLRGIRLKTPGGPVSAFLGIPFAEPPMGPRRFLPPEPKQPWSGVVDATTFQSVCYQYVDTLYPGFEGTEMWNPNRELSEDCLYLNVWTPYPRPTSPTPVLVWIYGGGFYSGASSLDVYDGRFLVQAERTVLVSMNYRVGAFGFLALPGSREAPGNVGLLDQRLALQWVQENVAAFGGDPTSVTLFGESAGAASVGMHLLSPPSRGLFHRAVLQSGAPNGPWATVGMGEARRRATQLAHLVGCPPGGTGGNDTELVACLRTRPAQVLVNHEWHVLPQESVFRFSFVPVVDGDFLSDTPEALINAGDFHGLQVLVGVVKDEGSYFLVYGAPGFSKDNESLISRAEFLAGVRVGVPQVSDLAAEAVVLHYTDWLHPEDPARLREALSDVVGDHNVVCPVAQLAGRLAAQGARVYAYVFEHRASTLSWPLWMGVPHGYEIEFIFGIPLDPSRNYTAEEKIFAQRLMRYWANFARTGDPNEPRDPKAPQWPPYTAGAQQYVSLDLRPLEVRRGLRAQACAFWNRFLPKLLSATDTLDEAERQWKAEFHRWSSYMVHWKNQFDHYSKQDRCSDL

caspase-3 [11] = assay: Caspase-3 ELISA in treated Caco-2 cells; assay type: cell-based, human; settings: DMSO control 97.06 ± 0.14
[12] = DPPH radical-scavenging activity; settings: read-out: DPPH (IC50); mean ± SE, three replicates
Experimental: In vitro biological activities
as §16, §17, §18, §19, §20, §21, §22, §23, §24, §25

[13] = test system: proteinase enzyme (trypsin); assay: Proteinase enzyme inhibition (anti-inflammatory); assay type: biochemical; settings: equal concentrations (1000 µg/mL); mean ± SE
[14] = test system: human colon cancer (Caco-2) cell line; assay: cells; assay type: cell-based; settings: for Viability %, Caco-2, 1st concentration: Conc.: 5a 13.45, 5d 12.64, 5e 12.29, 5f 11.81, 7a 12.72, 7f 11.24, DOX 11.50; for Viability %, Caco-2, 2nd concentration: Conc.: 5a 26.91, 5d 25.27, 5e 24.58, 5f 23.63, 7a 25.43, 7f 22.48, DOX 23.00; for Viability %, Caco-2, 3rd concentration: Conc.: 5a 53.81, 5d 50.55, 5e 49.15, 5f 47.26, 7a 50.86, 7f 44.96, DOX 46.00; for Viability %, Caco-2, 4th concentration: Conc.: 5a 107.63, 5d 101.09, 5e 98.31, 5f 94.51, 7a 101.72, 7f 89.93, DOX 91.99; for Viability %, Caco-2, 5th concentration: Conc.: 5a 215.26, 5d 202.19, 5e 196.61, 5f 189.03, 7a 203.44, 7f 179.85, DOX 183.99; for IC50: Homo sapiens, Caco-2, 48 h, MTT, mean ± SE, read-out: Cytotoxic activity IC50, Colon (Caco-2); for Therapeutic Index (TI), Colon (Caco-2): IC50 on normal cells (WI-38)/IC50 on Caco-2
[15] = Conc. as printed: 5a 53.81, 5d 50.55, 5e 49.15, 5f 47.26, 7a 50.86, 7f 44.96, DOX 46.00, read-out: Viability %, WI-38, 3rd concentration
[16] = Conc. as printed: 5a 107.63, 5d 101.09, 5e 98.31, 5f 94.51, 7a 101.72, 7f 89.93, DOX 91.99, read-out: Viability %, WI-38, 4th concentration
[17] = Conc.: 5a 13.45, 5d 12.64, 5e 12.29, 5f 11.81, 7a 12.72, 7f 11.24, DOX 11.50, read-out: Viability %, WI-38, 1st concentration
[18] = Conc.: 5a 26.91, 5d 25.27, 5e 24.58, 5f 23.63, 7a 25.43, 7f 22.48, DOX 23.00, read-out: Viability %, WI-38, 2nd concentration
[19] = Conc.: 5a 215.26, 5d 202.19, 5e 196.61, 5f 189.03, 7a 203.44, 7f 179.85, DOX 183.99, read-out: Viability %, WI-38, 5th concentration

bovine serum albumin (BSA), sequence (P02769 25-607): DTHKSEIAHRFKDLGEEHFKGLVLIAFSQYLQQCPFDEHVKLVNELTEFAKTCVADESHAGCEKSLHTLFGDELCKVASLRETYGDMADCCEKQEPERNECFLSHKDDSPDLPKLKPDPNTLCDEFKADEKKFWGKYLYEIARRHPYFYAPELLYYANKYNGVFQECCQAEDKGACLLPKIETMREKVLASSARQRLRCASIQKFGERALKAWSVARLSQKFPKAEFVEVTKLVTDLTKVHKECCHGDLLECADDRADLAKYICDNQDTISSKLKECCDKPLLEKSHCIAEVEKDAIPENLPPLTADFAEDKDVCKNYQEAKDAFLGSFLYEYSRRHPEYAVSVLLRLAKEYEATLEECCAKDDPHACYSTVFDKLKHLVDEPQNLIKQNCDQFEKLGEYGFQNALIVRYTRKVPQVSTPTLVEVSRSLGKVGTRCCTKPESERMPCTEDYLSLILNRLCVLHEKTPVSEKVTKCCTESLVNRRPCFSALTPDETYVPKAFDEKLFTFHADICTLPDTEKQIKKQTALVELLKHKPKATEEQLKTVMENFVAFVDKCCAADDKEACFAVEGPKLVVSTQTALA

SMILES | Inhibition (%) Protein Denaturation [1] [%] | ABTS (%) inhibition [2] [%] | Bcl-2 level, Colon (Caco-2) (Bcl-2 [3]) [ng/mL] | Inhibition (%) α-Glucosidase (α-glucosidase) [%] | Iron-Reducing Power (IRP) [4] [µg/mL] | Inhibition (%) α-Amylase (α-amylase) [%] | viability at 48 h [5, 15] [%] | viability at 48 h [5, 16] [%] | viability at 48 h [5, 17] [%] | viability at 48 h [5, 18] [%] | viability at 48 h [5, 19] [%] | IC50 at 48 h [5] [µM] | Bcl-2 level, Lung (A549) (Bcl-2 [6]) [ng/mL] | Total Antioxidant Capacity (TAC) [7] [mg Gallic Acid/g] | Caspase-3 level, Lung (A549) (caspase-3 [8]) [pg/mL] | Viability %, A549, 1st concentration [9] [%] | Viability %, A549, 2nd concentration [9] [%] | inhibition at 1000 µg/mL [10] [%] | IC50 [12] [µM] | Inhibition (%) Proteinase [13] [%] | further results
O=C(Nc1ccccc1)c1c(Nc2ccccc2)n[nH]c1N=Cc1ccc(N2CCCCC2)cc1 [5a] | 26.83 ± 0.03 | 75.46 ± 0.05 | 5.33 ± 0.05 | 26.87 ± 0.05 | 34.27 ± 0.07 | 31.24 ± 0.05 | 69.5 | 54.2 | 81.4 | 75.5 | 38.3 | 442 ± 8.8 | 6.55 ± 0.03 | 52.25 ± 0.19 | 184.74 ± 0.26 | 97.46 | 87.31 | 42.05 ± 0.03 | 26.43 ± 0.01 | 23.33 ± 0.03 | Viability %, A549, 3rd concentration [9]: 60.91%; Viability %, A549, 4th concentration [9]: 46.48%; Viability %, A549, 5th concentration [9]: 20.20%; IC50 [9]: 68.84 ± 0.14 µM; Caspase-3 level, Colon (Caco-2) (caspase-3 [11]): 208.68 ± 0.31 pg/mL; Viability %, Caco-2, 1st concentration [14]: 82.93%; Viability %, Caco-2, 2nd concentration [14]: 74.41%; Viability %, Caco-2, 3rd concentration [14]: 55.38%; Viability %, Caco-2, 4th concentration [14]: 33.22%; Viability %, Caco-2, 5th concentration [14]: 25.84%; IC50 [14]: 60.29 ± 0.14 µM; Therapeutic Index (TI), Colon (Caco-2) [14]: 7.32
COc1ccc(Nc2n[nH]c(/N=C/c3ccc(N4CCCCC4)cc3)c2C(=O)Nc2ccccc2)cc1 [5d] | 27.79 ± 0.03 | 78.18 ± 0.05 | 3.20 ± 0.03 | 27.84 ± 0.05 | 35.51 ± 0.07 | 32.37 ± 0.05 | 82.7 | 76.8 | 98.7 | 90.7 | 62.7 | 732 ± 10.5 | 2.81 ± 0.01 | 54.13 ± 0.20 | 300.73 ± 0.42 | 90.46 | 79.41 | 62 ± 0.04 | 23.98 ± 0.01 | 24.17 ± 0.03 | Viability %, A549, 3rd concentration [9]: 48.01%; Viability %, A549, 4th concentration [9]: 36.58%; Viability %, A549, 5th concentration [9]: 18.10%; IC50 [9]: 48.61 ± 0.14 µM; Inhibition (%) Acetylcholinesterase [10]: 62.11 ± 0.04%; Caspase-3 level, Colon (Caco-2) (caspase-3 [11]): 242.65 ± 0.36 pg/mL; Viability %, Caco-2, 1st concentration [14]: 70.71%; Viability %, Caco-2, 2nd concentration [14]: 51.15%; Viability %, Caco-2, 3rd concentration [14]: 40.54%; Viability %, Caco-2, 4th concentration [14]: 26.77%; Viability %, Caco-2, 5th concentration [14]: 23.43%; IC50 [14]: 62.33 ± 0.14 µM; Therapeutic Index (TI), Colon (Caco-2) [14]: 11.73
COc1ccc(Nc2n[nH]c(/N=C/c3ccc(N4CCCCC4)cc3)c2C(=O)Nc2ccc(C)cc2)cc1 [5e] | 27.33 ± 0.03 | 76.87 ± 0.05 | 2.46 ± 0.02 | 27.37 ± 0.05 | 34.91 ± 0.07 | 31.83 ± 0.05 | 81 | 65.7 | 92.9 | 87 | 38.3 | 648 ± 7.57 | 3.93 ± 0.02 | 53.23 ± 0.20 | 214.81 ± 0.30 | 90.96 | 79.91 | 42.83 ± 0.03 | 23.71 ± 0.01 | 23.76 ± 0.03 | Viability %, A549, 3rd concentration [9]: 48.51%; Viability %, A549, 4th concentration [9]: 37.08%; Viability %, A549, 5th concentration [9]: 18.60%; IC50 [9]: 47.74 ± 0.2 µM; Caspase-3 level, Colon (Caco-2) (caspase-3 [11]): 315.45 ± 0.46 pg/mL; Viability %, Caco-2, 1st concentration [14]: 70.21%; Viability %, Caco-2, 2nd concentration [14]: 50.65%; Viability %, Caco-2, 3rd concentration [14]: 40.04%; Viability %, Caco-2, 4th concentration [14]: 26.27%; Viability %, Caco-2, 5th concentration [14]: 11.43%; IC50 [14]: 40.99 ± 0.2 µM; Therapeutic Index (TI), Colon (Caco-2) [14]: 15.81
COc1ccc(Nc2n[nH]c(N=Cc3c(C)nn(-c4ccccc4)c3Cl)c2C(=O)Nc2ccc(Cl)cc2)cc1 [6f] | 15.64 ± 0.02 | 44.00 ± 0.03 |  | 15.67 ± 0.03 | 19.98 ± 0.04 | 18.22 ± 0.03 |  |  |  |  |  |  |  | 30.47 ± 0.11 |  |  |  | 24.52 ± 0.01 | 37.6 ± 0.02 | 13.60 ± 0.02 | 

— publication PMC11125359 (Pharmaceuticals, 2024)
